For 22 compounds, IC50 results are on record in patent US20240270741A1 (Cogent Biosciences, Inc., priority 2023, published 2024).

The target of one experiment is FGFR2 (Homo sapiens, UniProt P21802). The experiment can be described thus: FGFR wild type enzyme assay (HTRF KinEASE-TK), FGFR2. Conditions: Enz FGFR2 (nM). For orientation: In TR-FRET formats the signal depends on donor and acceptor labels being close together.
Sequence of FGFR2 (P21802 399-821 limits assumed): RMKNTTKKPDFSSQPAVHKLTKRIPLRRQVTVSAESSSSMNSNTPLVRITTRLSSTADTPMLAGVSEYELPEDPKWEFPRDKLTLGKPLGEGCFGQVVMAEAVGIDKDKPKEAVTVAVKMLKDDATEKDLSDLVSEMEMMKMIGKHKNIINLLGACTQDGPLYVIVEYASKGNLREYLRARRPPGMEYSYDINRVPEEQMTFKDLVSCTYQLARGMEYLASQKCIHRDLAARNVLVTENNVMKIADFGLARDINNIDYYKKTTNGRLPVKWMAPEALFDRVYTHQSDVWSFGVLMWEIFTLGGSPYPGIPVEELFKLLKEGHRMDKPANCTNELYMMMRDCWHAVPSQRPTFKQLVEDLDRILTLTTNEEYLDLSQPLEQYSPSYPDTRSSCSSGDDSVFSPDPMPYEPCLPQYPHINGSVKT
Experimental: Activity against FGFR wild type and mutant enzymes were determined in biochemical assays using purified intracellular domains of the respective isoforms using HTRF KinEASE-TK assay technology from CisBio, now PerkinElmer. (Catalogue number 62TK0PEC). Briefly test compounds were tested in 11 point 1:3 serial dilutions, typical final concentration ranges from 10,000 nM to 0.17 nM. Test compounds were dissolved in DMSO and added to assay plates using acoustic transfer. Enzyme was pre-incubated with test compound for 30 minutes and the assay was initiated by addition of ATP and TK-peptide substrate. After 60 minutes at room temperature the reaction was quenched with detection reagent and incubated for an additional 60 minutes at room temperature. The plates were read using a multimode reader and the emission ratio of 665 nm to 615 nm was determined. This ratio was converted to percent of control (POC). [1-(high control-sample signal)/(high control-low control)]*100. Wells without compound were used to determine high control values and wells without enzyme were used to determine low control values. The POC values were fit using a four-parameter logistic model and the value where the fit curve was equal to 50 POC was reported as the IC50 using the Signals Vitro Vivo software package (PerkinElmer). Final assay conditions were: 50 mM HEPES pH7.5, 10 mM MgCl2, 1 mM EDTA, 0.01% Brij-35, 2 mM MnCl2, 1 mM DTT, and 0.5 uM TK-peptide.
With `N#Cc1cnn2cc(-c3cnn([C@H]4CCCNC4)c3)cc(SC3CCOC3)c12` (stereo partly drawn) [Example 58, 6-[1-[(3S)-3-piperidyl]pyrazol-4-yl]-4-tetrahydrofuran-3-ylsulfanyl-pyrazolo[1,5-a]pyridine-3-carbonitrile], it took 4 nM to reach half-maximal inhibition (IC50). That is a single-digit nanomolar value.

Compound `N#Cc1cnn2cc(-c3cnn([C@H]4CCCNC4)c3)cc(SC3CCC3)c12` [Example 54, 4-cyclobutylsulfanyl-6-[1-[(3S)-3-piperidyl]pyrazol-4-yl]pyrazolo[1,5-a]pyridine-3-carbonitrile] gave an IC50 of 1 nM.

Take `Cc1c(-c2cc(Sc3ncc(F)cc3F)c3c(C#N)cnn3c2)cnn1C1CCNCC1` [Example 110, 4-[(3,5-difluoro-2-pyridyl)sulfanyl]-6-[5-methyl-1-(4-piperidyl)pyrazol-4-yl]pyrazolo[1,5-a]pyridine-3-carbonitrile]: the 50% inhibitory concentration (IC50) amounted to 3 nM.

Staying with this experiment, now noted: Enz FGFR2 (nM), FGFR2 wild type enzyme.
With `Cc1c(-c2cc(Sc3ncccc3F)c3c(C#N)cnn3c2)cnn1[C@H]1CCNC[C@@H]1O` [Example 276, 4-[(3-fluoro-2-pyridyl)sulfanyl]-6-[1-[(3S,4S)-3-hydroxy-4-piperidyl]-5-methylpyrazol-4-yl]pyrazolo[1,5-a]pyridine-3-carbonitrile], the half-inhibitory concentration (IC50) came to 3 nM.

As to `Cc1c(-c2cc(Sc3ccc(F)cn3)c3c(C#N)cnn3c2)cnn1C1CCN(C)CC1` [Example 329, 4-((5-fluoropyridin-2-yl)thio)-6-(5-methyl-1-(1-methylpiperidin-4-yl)-1H-pyrazol-4-yl)pyrazolo[1,5-a]pyridine-3-carbonitrile], the midpoint of inhibition, the IC50, lay at 5 nM.

The compound `Cc1c(-c2cc(Sc3ncccc3F)c3c(C#N)cnn3c2)cnn1C1CCN(C(=O)CO)CC1` [Example 163, 4-((3-fluoropyridin-2-yl)thio)-6-(1-(1-(2-hydroxyacetyl)piperidin-4-yl)-5-methyl-1H-pyrazol-4-yl)pyrazolo[1,5-a]pyridine-3-carbonitrile] came in with a 50% inhibitory concentration (IC50) of 3 nM.

In turn, `Cc1c(-c2cc(Sc3ncccc3F)c3c(C#N)cnn3c2)cnn1[C@H]1CC[C@H](N)CC1` [Example 187, 6-(1-((1r,4r)-4-aminocyclohexyl)-5-methyl-1H-pyrazol-4-yl)-4-((3-fluoropyridin-2-yl)thio)pyrazolo[1,5-a]pyridine-3-carbonitrile] had an IC50 of 1 nM.

`Cc1c(-c2cc(Sc3ncccc3F)c3c(C#N)cnn3c2)cnn1C1CC2CCC(C1)N2` (stereo not shown) [Example 203, 4-[(3-fluoro-2-pyridiyl)sulfonyl]-6-[1-[1-(1-prop-2-enoylazetidine-3-carbonyl)-4-piperidyl]pyrazol-4-yl]pyrazolo[1,5-a]pyridine-3-carbonitrile] showed an IC50 of 2 nM.

Compound `Cc1c(-c2cc(Sc3ncccc3F)c3c(C#N)cnn3c2)cnn1C1CC2(CNC2)C1` [Example 209, 4-((3-fluoropyridin-2-yl)thio)-6-(5-methyl-1-(2-azaspiro[3.3]heptan-6-yl)-1H-pyrazol-4-yl)pyrazolo[1,5-a]pyridine-3-carbonitrile] yielded an IC50 of 1 nM.

In turn, `Cc1c(-c2cc(Sc3ccccc3C#N)c3c(C#N)cnn3c2)cnn1C1CCN(C[C@H](C)O)CC1` [Example 142, (S)-4-((2-cyanophenyl)thio)-6-(1-(1-(2-hydroxypropyl)piperidin-4-yl)-5-methyl-1H-pyrazol-4-yl)pyrazolo[1,5-a]pyridine-3-carbonitrile] displayed an IC50 of 13 nM.

The experiment is the same for the next values; noted with them: Enz FGFR2 (nM), FGFR2 wild type enzyme assay.
`Cc1c(-c2cc(Sc3ccc(F)cc3C#N)c3c(C#N)cnn3c2)cnn1[C@H]1CCCN(c2ccccn2)C1` [Example 456, (S)-4-((2-cyano-4-fluorophenyl)thio)-6-(5-methyl-1-(1-(pyridin-2-yl)piperidin-3-yl)-1H-pyrazol-4-yl)pyrazolo[1,5-a]pyridine-3-carbonitrile] came in with an IC50 of 8 nM.

`N#Cc1cc(F)ccc1Sc1cc(-c2ccc(N3CCNCC3)nc2)cn2ncc(C#N)c12` [Example 595, 4-((2-cyano-4-fluorophenyl)thio)-6-(6-(piperazin-1-yl)pyridin-3-yl)pyrazolo[1,5-a]pyridine-3-carbonitrile] registered an IC50 of 15 nM.

In turn, `N#Cc1cc(F)ccc1Sc1cc(-c2cnn([C@H]3CCCNC3)n2)cn2ncc(C#N)c12` [Example 462, (S)-4-((2-cyano-4-fluorophenyl)thio)-6-(2-(piperidin-3-yl)-2H-1,2,3-triazol-4-yl)pyrazolo[1,5-a]pyridine-3-carbonitrile] showed an IC50 of 19 nM.

On to `CC(C)(O)CCn1cc(-c2cc(Sc3ccccc3C#N)c3c(C#N)cnn3c2)cn1` [Example 653, 4-((2-cyanophenyl)thio)-6-(1-(3-hydroxy-3-methylbutyl)-1H-pyrazol-4-yl)pyrazolo[1,5-a]pyridine-3-carbonitrile], for which 1 nM corresponded to half-maximal inhibition (IC50).

The compound `Cc1c(-c2cc(Sc3ccc(F)cc3C#N)c3c(C#N)cnn3c2)cnn1[C@H]1CCCN(c2ncccn2)C1` [Example 433, (S)-4-((2-cyano-4-fluorophenyl)thio)-6-(5-methyl-1-(1-(pyrimidin-2-yl)piperidin-3-yl)-1H-pyrazol-4-yl)pyrazolo[1,5-a]pyridine-3-carbonitrile] yielded an IC50 of 5 nM.

On to `Cn1cc(-c2cc(Sc3ccccc3C#N)c3c(C#N)cnn3c2)c(N)n1` [Example 642, 6-(3-amino-1-methyl-1H-pyrazol-4-yl)-4-((2-cyanophenyl)thio)pyrazolo [1,5-a]pyridine-3-carbonitrile], for which half-maximal inhibition (IC50) was put at 2 nM.

`CC(=O)N1CCC(n2ncc(-c3cc(Sc4ncccc4F)c4c(C#N)cnn4c3)c2CO)CC1` [Example 423, 6-(1-(1-acetylpiperidin-4-yl)-5-(hydroxymethyl)-1H-pyrazol-4-yl)-4-((3-fluoropyridin-2-yl)thio)pyrazolo[1,5-a]pyridine-3-carbonitrile] returned an IC50 of 259 nM.

Consider `CC1(C)C[C@@H](n2cc(-c3cc(Sc4ccccc4C#N)c4c(C#N)cnn4c3)cn2)CCN1` [Example 621, (S)-4-((2-cyanophenyl)thio)-6-(1-(2,2-dimethylpiperidin-4-yl)-1H-pyrazol-4-yl)pyrazolo[1,5-a]pyridine-3-carbonitrile], for which the IC50 is 0.3 nM.

Compound `C[C@]1(O)CC[C@H](n2cc(-c3cc(Sc4ccccc4C#N)c4c(C#N)cnn4c3)cn2)CC1` [Example 504, 4-((2-cyanophenyl)thio)-6-(1-((1r,4r)-4-hydroxy-4-methylcyclohexyl)-1H-pyrazol-4-yl)pyrazolo[1,5-a]pyridine-3-carbonitrile] showed a half-maximal inhibitory concentration (IC50) of 0.4 nM.

For `CC(=O)NC1CCN(c2ccc(-c3cc(Sc4ccccc4C#N)c4c(C#N)cnn4c3)cn2)C1` (stereo not shown) [Example 562, N-(1-(5-(3-cyano-4-((2-cyanophenyl)thio)pyrazolo [1,5-a]pyridin-6-yl)pyridin-2-yl)pyrrolidin-3-yl)acetamide], the concentration for half-maximal inhibition (IC50) worked out at 1 nM.

As to `CC(=O)N1CCN(c2ccc(-c3cc(Sc4ccccc4C#N)c4c(C#N)cnn4c3)cn2)CC1` [Example 664, 6-(6-(4-acetylpiperazin-1-yl)pyridin-3-yl)-4-((2-cyanophenyl)thio)pyrazolo [1,5-a]pyridine-3-carbonitrile], the IC50 was 0.2 nM. This IC50 is about 5-fold lower than that of the compound before.

Consider `Cc1c(-c2cc(Sc3ncc(F)cc3F)c3c(C#N)cnn3c2)cnn1[C@H]1CCCNC1` [Example 345, (S)-4-((3,5-difluoropyridin-2-yl)thio)-6-(5-methyl-1-(piperidin-3-yl)-1H-pyrazol-4-yl)pyrazolo[1,5-a]pyridine-3-carbonitrile], for which inhibition was half-maximal at 4 nM (IC50).

In general, IC50 refers to the concentration at which inhibition is half-maximal. A higher IC50 goes with lower potency.
